Data on 4 substances can be found in patent US20140371171A1, “Aqueous Lock Composition Comprising Ethanol and a Polysaccharide Anticoagulant” (UNIVERSITE D'AUVERGNE CLERMONT I, priority 2012, published 2014).

What all share (assay type): physicochemical
Series [1] can be described thus: Ethanol concentration that does not cause the lock composition to precipitate, varying the heparin content. Particulars: observed after 48 hours. The procedure:
The lock compositions tested were as follows: • composition comprising a mixture of the nadroparin calcium and ethanol • composition comprising a mixture of the tinzaparin sodium and ethanol, • composition comprising a mixture of the dalteparin sodium and ethanol, • composition comprising a mixture of the enoxaparin sodium and ethanol. […] The compositions were tested at ambient temperature and at 37° C. and the results were observed after 48 hours.

Series [2] in a line: Visual observation of precipitation in ethanol/enoxaparin sodium mixtures. The note with it: enoxaparin sodium 400 IU/mL. As for the experimental part: Various mixtures of ethanol/enoxaparin sodium were prepared in 5 mL glass hemolysis tubes combining either: • a) a fixed concentration of enoxaparin sodium with 400 IU/mL (corresponding to the dose used in an antithrombotic preventive lock) in a range of increasing concentrations of ethanol (30%, 40%, 45%, 50%, 60% and 70% by volume (v/v)), the dilutions of ethanol having been made in physiological serum solution (NaCl in a concentration of 0.9 g/100 ml). • b) increasing concentrations of enoxaparin sodium (50, 100, 400, 500 and 1,000 IU/mL) in an ethanol solution of fixed concentration (40, 45 or 50% v/v). The visual observation of different ethanol/enoxaparin mixtures was carried out by way of an assessment of the presence (or absence) of precipitation at the time of effecting the contacting of the two solutions; the observed phenomena corresponding, either to the absence (level 0 noted −), or the presence of a precipitation. The extent of the precipitation was assessed, either based on the appearance of a cloudiness, or on the formation of a deposit in the form of droplets and the levels were evaluated by the scores: +, ++, +++. […] The observation was monitored over time, that is after 1 minute, 1 hour, 24 hours, 48 hours and 72 hours, of contact, and this was done at two temperatures, 20° C. and 37° C.

The nature of series [3]: Assay of enoxaparin by HPLC-ELSD in supernatant. Particulars: enoxaparin sodium 400 IU/mL; ethanol 70% v/v. The procedure: The assaying of enoxaparin was performed by a method of coupling high-performance liquid chromatography (HPLC) with an evaporative light scattering detector (ELSD) method. In order to be within the zone of linearity of the detector response, the samples were diluted to one tenth in the physiological serum solution. The analysis was carried out in the mixtures combining enoxaparin sodium 400 IU/mL with increasing concentrations of ethanol (30 to 70% (V/V)), in comparison with a calibration range of the enoxaparin composition (marketed under the trade name Lovenox®) prepared in the physiological serum solution at the following concentrations: 6 IU/mL, 12 IU/mL, 40 IU/mL, 80 IU/mL, 120 IU/mL.
For the samples presenting a cloudiness effect, a preliminary centrifugation at 1,600 g for 5 minutes was carried out and only the supernatant was subsequently analysed.
The operating conditions for the chromatographic separation were as follows: • analytical column measuring 150 mm in length and 4.6 mm in diameter, filled with a stationary phase of C18 5 μm. • separation of components in isocratic mode making use of a mixture of methanol/water, 50/50 (V/V) at a flow rate of 0.3 mL/min. • detection using an evaporative light scattering detector (ELSD): evaporation temperature of 40° C., gain of the detector=3 and pressure of nitrogen (nebulizer gas)=3.5 bar.

On to tinzaparin sodium, for which the “Ethanol content (% v/v) at 37° C. that does not cause precipitation” value is reported as 44.0 % v/v in series [1] (heparin content 10 IU/mL), 41.0 % v/v in series [1] (heparin content 500 IU/mL) and 38.0 % v/v in series [1] (heparin content 1,000 IU/mL). For the same substance, the results for the “Ethanol content (% v/v) at ambient temperature that does not cause precipitation” value in series [1] (heparin content 10 IU/mL), in series [1] (heparin content 500 IU/mL) and in series [1] (heparin content 1,000 IU/mL) were 42.1 % v/v, 34.3 % v/v and 26.3 % v/v, respectively.
Turning to nadroparin calcium, the “Ethanol content (% v/v) at 37° C. that does not cause precipitation” value amounted to 44.6 % v/v in series [1] (heparin content 10 IU/mL), 41.7 % v/v in series [1] (heparin content 500 IU/mL) and 38.7 % v/v in series [1] (heparin content 1,000 IU/mL). The “Ethanol content (% v/v) at ambient temperature that does not cause precipitation” value in series [1] (heparin content 10 IU/mL) was 43.7 % v/v; in series [1] (heparin content 500 IU/mL) it was 41.7 % v/v; in series [1] (heparin content 1,000 IU/mL), 39.7 % v/v.
enoxaparin sodium: the “visual appearance of the mixture (cloudiness)” value in series [2] (ethanol 60 and 70% v/v) is “the cloudiness increases progressively as the ethanol content increases”. Besides, the “visual appearance of the mixture (precipitation)” value in series [2] (ethanol less than or equal to 40% v/v, up to 72 hours at 20° C. or 37° C.) was “remains clear and colourless”. Moreover, the entries for the “Ethanol content (% v/v) at 37° C. that does not cause precipitation” value in series [1] (heparin content 10 IU/mL), in series [1] (heparin content 500 IU/mL) and in series [1] (heparin content 1,000 IU/mL) were 48.2 % v/v, 45.8 % v/v and 43.3 % v/v, respectively. The “Ethanol content (% v/v) at ambient temperature that does not cause precipitation” value came to 47.6 % v/v in series [1] (heparin content 10 IU/mL), 40.7 % v/v in series [1] (heparin content 500 IU/mL) and 33.7 % v/v in series [1] (heparin content 1,000 IU/mL). Also, the “enoxaparin content levels found in the supernatant after centrifugation” value in series [3] was “not detectable”.
Consider dalteparin sodium, for which the results for the “Ethanol content (% v/v) at 37° C. that does not cause precipitation” value in series [1] (heparin content 10 IU/mL), in series [1] (heparin content 500 IU/mL) and in series [1] (heparin content 1,000 IU/mL) were 47.8 % v/v, 41.9 % v/v and 35.9 % v/v, respectively. In addition, the “Ethanol content (% v/v) at ambient temperature that does not cause precipitation” value in series [1] (heparin content 10 IU/mL) was 44.6 % v/v; in series [1] (heparin content 500 IU/mL) it was 35.7 % v/v; in series [1] (heparin content 1,000 IU/mL) it was 26.7 % v/v.
